Results as given in ChEMBL document CHEMBL4346660, “Cryptolepine and aromathecin based mimics as potent G-quadruplex-binding, DNA-cleavage and anticancer agents: Design, synthesis and DNA targeting-induced apoptosis” (Eur J Med Chem, 2019).
The source made the active and inactive calls. No cut-off for these calls is given here.

What was measured:
MGC-803 [1] = assay: Cell cycle arrest in human MGC803 cells assessed as accumulation of cells at G1 phase at 2.5 uM incubated for 48 hrs by propidium iodide staining-based flow cytometry (reference value: 53.96%); format: functional
MGC-803 [2] = assay: Induction of apoptosis in human MGC803 cells assessed as viable cells at 0.5 uM incubated for 24 hrs by Annexin V-FITC/propidium iodide staining based flow cytometry (reference value: 96.53+/-2.11%); format: functional; conditions: MGC-803, 24 h, read-out: Activity
MGC-803 [3] = assay: Cell cycle arrest in human MGC803 cells assessed as accumulation of cells at G2/M phase at 0.5 uM incubated for 48 hrs by propidium iodide staining-based flow cytometry (reference value: 13.07%); format: functional
MGC-803 [4] = assay: Induction of apoptosis in human MGC803 cells assessed as increase in AIF expression at 0.5 to 2.5 uM after 24 hrs by Western blot analysis; format: functional, cell-based
NCI-H460 = assay: Antiproliferative activity against human NCI-H460 cells assessed as reduction in cell viability incubated for 48 hrs by MTT assay; format: functional, cell-based; conditions: NCI-H460, 48 h
MGC-803 [5] = assay: Induction of apoptosis in human MGC803 cells assessed as increase in Bak levels at 0.5 to 2.5 uM after 24 hrs by Western blot analysis; format: functional, cell-based
MGC-803 [6] = assay: Induction of apoptosis in human MGC803 cells assessed as late apoptotic cells at 0.5 uM incubated for 24 hrs by Annexin V-FITC/propidium iodide staining based flow cytometry (reference value: 0.69 +/- 0.05 %); format: functional
MGC-803 [7] = assay: Cell cycle arrest in human MGC803 cells assessed as accumulation of cells at S phase at 2.5 uM incubated for 48 hrs by propidium iodide staining based flow cytometry (reference value: 32.97%); format: functional
HepG2 = assay: Antiproliferative activity against human HepG2 cells assessed as reduction in cell viability incubated for 48 hrs by MTT assay; format: functional, cell-based; conditions: HepG2, 48 h
MGC-803 [8] = assay: Induction of apoptosis in human MGC803 cells assessed as formation of apoptotic bodies at 2.5 uM after 24 hrs by Hoechst 33258 staining-based fluorescence microscopic method; format: functional, cell-based
MGC-803 [9] = assay: Induction of mitochondrial membrane depolarization in human MGC803 cells at 0.5 uM incubated for 24 hrs by JC-1 dye-based flow cytometric analysis (Rvb 3.37%); format: functional
MGC-803 [10] = assay: Induction of apoptosis in human MGC803 cells assessed as appearance of irregular cell shape at 2.5 uM after 24 hrs by Hoechst 33258 staining-based fluorescence microscopic method; format: functional
MGC-803 [11] = assay: Antitumor activity against human MGC803 cells xenografted in BALB/C mouse assessed as tumor growth inhibition at 6 mg/kg, ip administered every other day for 2 weeks measured during compound dosing relative to control; format: functional; conditions: MGC-803, ip, 336 h, read-out: TGI
Calf thymus DNA [12] = assay: Binding affinity to calf thymus DNA assessed as blue shift in maximum absorption at 10:1 compound to DNA ratio incubated for 5 mins by UV-Vis spectroscopy; format: nucleic-acid assay; conditions: Bos taurus
MGC-803 [13] = assay: Induction of apoptosis in human MGC803 cells assessed as late apoptotic cells at 2.5 uM incubated for 24 hrs by Annexin V-FITC/propidium iodide staining based flow cytometry (reference value: 0.69 +/- 0.05 %); format: functional
MGC-803 [14] = assay: Induction of apoptosis in human MGC803 cells assessed as increase in ROS generation incubated for 24 hrs by DCFH-DA dye-based flow cytometric analysis; format: functional, cell-based
MGC-803 [15] = assay: Induction of apoptosis in human MGC803 cells assessed as early apoptotic cells at 0.5 uM incubated for 24 hrs by Annexin V-FITC/propidium iodide staining based flow cytometry (reference value: 0.97 +/- 0.10 %); format: functional
Quadruplex DNA [16] = assay: Binding affinity to human HTG21 G-quadruplex DNA assessed as Stern-Volmer quenching constant by fluorometric titration assay; format: nucleic-acid assay
MGC-803 [17] = assay: Induction of apoptosis in human MGC803 cells assessed as increase in Bax levels at 0.5 to 2.5 uM after 24 hrs by Western blot analysis; format: functional, cell-based
MGC-803 [18] = assay: Induction of apoptosis in human MGC803 cells assessed as viable cells at 2.5 uM incubated for 24 hrs by Annexin V-FITC/propidium iodide staining based flow cytometry (reference value: 96.53+/-2.11%); format: functional; conditions: MGC-803, 24 h, read-out: Activity
MGC-803 [19] = assay: Cell cycle arrest in human MGC803 cells assessed as accumulation of cells at S phase at 0.5 uM incubated for 48 hrs by propidium iodide staining based flow cytometry (reference value: 32.97%); format: functional
MGC-803 [20] = assay: Induction of apoptosis in human MGC803 cells assessed as increase in cytochrome-c expression at 0.5 to 2.5 uM after 24 hrs by Western blot analysis; format: functional, cell-based
MGC-803 [21] = assay: Cell cycle arrest in human MGC803 cells assessed as change in cyclin A2 expression at 0.5 to 2.5 uM incubated for 24 hrs by immunoblot analysis; format: functional, cell-based
MGC-803 [22] = assay: Induction of apoptosis in human MGC803 cells assessed as nuclear condensation at 2.5 uM after 24 hrs by Hoechst 33258 staining-based fluorescence microscopic method; format: functional, cell-based
MGC-803 [23] = assay: Induction of mitochondrial membrane depolarization in human MGC803 cells at 2.5 uM incubated for 24 hrs by JC-1 dye-based flow cytometric analysis (Rvb 3.37%); format: functional
MGC-803 [24] = assay: Induction of apoptosis in human MGC803 cells assessed as cell shrinkage at 0.5 to 2.5 uM after 24 hrs by Hoechst 33258 staining-based fluorescence microscopic method; format: functional
Quadruplex DNA [25] = assay: Binding affinity to human c-Kit-1 G-quadruplex DNA assessed as Stern-Volmer quenching constant by fluorometric titration assay; format: nucleic-acid assay
MGC-803 [26] = assay: Cell cycle arrest in human MGC803 cells assessed as accumulation of cells at S phase at 1 uM incubated for 48 hrs by propidium iodide staining based flow cytometry (reference value: 32.97%); format: functional
MGC-803 [27] = assay: Induction of apoptosis in human MGC803 cells assessed as increase in Apaf-1 expression at 0.5 to 2.5 uM after 24 hrs by Western blot analysis; format: functional, cell-based
MGC-803 [28] = assay: Cell cycle arrest in human MGC803 cells assessed as down regulation of CDK2 expression at 0.5 to 2.5 uM incubated for 24 hrs by immunoblot analysis; format: functional, cell-based
MGC-803 [29] = assay: Induction of apoptosis in human MGC803 cells assessed as early apoptotic cells at 1 uM incubated for 24 hrs by Annexin V-FITC/propidium iodide staining based flow cytometry (reference value: 0.97 +/- 0.10 %); format: functional
Calf thymus DNA [30] = assay: Binding affinity to calf thymus DNA assessed as hyperchromic effect at 10:1 compound to DNA ratio incubated for 5 mins by UV-Vis spectroscopy; format: nucleic-acid assay; conditions: Bos taurus
[31] = Toxicity in human MGC803 cell xenografted BALB/C mouse assessed as decrease in body weight at 6 to 12 mg/kg, ip administered every other day for 2 weeks measured during compound dosing; format: organism-based; conditions: in vivo, 336 h
Quadruplex DNA [32] = assay: Binding affinity to human Pu27 G-quadruplex DNA at 10 uM incubated for 5 mins by CD spectroscopy; format: nucleic-acid assay
MGC-803 [33] = assay: Cell cycle arrest in human MGC803 cells assessed as change in cyclin E2 expression at 0.5 to 2.5 uM incubated for 24 hrs by immunoblot analysis; format: functional, cell-based
Quadruplex DNA [34] = assay: Binding affinity to human c-Kit-1 G-quadruplex DNA at 10 uM incubated for 5 mins by CD spectroscopy; format: nucleic-acid assay

CN(C)CCCNc1c2c(nc3ccc(F)cc13)-c1ccccc1C2
Activity (MGC-803 [1]): 8.74%
viability at 0.5 µM (MGC-803 [2]): 80.3%
Activity (MGC-803 [3]): 3.76%
Activity (MGC-803 [4]): Active
IC50 (NCI-H460): 1960 nM
Activity (MGC-803 [5]): Active
Activity (MGC-803 [6]): 4.15%
Activity (MGC-803 [7]): 59.44%
IC50 (HepG2): 1770 nM
Activity (MGC-803 [8]): Active
Activity (MGC-803 [9]): 23.6%
Activity (MGC-803 [10]): Active
inhibition in vivo at 6 mg/kg (MGC-803 [11]): 31.2%
Activity (Calf thymus DNA [12]): 10 nm
Activity (MGC-803 [13]): 7.45%
Activity (MGC-803 [14]): Dose-dependent effect
Activity (MGC-803 [15]): 13.8%
Kq (Quadruplex DNA [16]): 1.56 ×10⁷ No_unit
Activity (MGC-803 [17]): Active
viability at 2.5 µM (MGC-803 [18]): 37.3%
Activity (MGC-803 [19]): 44.73%
Activity (MGC-803 [20]): Active
Activity (MGC-803 [21]): inactive
Activity (MGC-803 [22]): Active
Activity (MGC-803 [23]): 97.5%
Activity (MGC-803 [24]): Active
Kq (Quadruplex DNA [25]): 6.26 ×10⁶ No_unit
Activity (MGC-803 [26]): 52.87%
Activity (MGC-803 [27]): Active
Activity (MGC-803 [28]): Active
Activity (MGC-803 [29]): 22%
Activity (Calf thymus DNA [30]): Active
Activity [31]: Non-Toxic
Activity (Quadruplex DNA [32]): Active
Activity (MGC-803 [33]): inactive
Activity (Quadruplex DNA [34]): Active
